Measurements published in patent US20210298306A1, “PESTICIDALLY ACTIVE AZOLE-AMIDE COMPOUNDS” (SYNGENTA PARTICIPATIONS AG, priority 2018, published 2021).

Legend:
Assay type in all cases: in vivo
Diabrotica balteata = test: Example B1: Diabrotica balteata (corn root worm), maize sprouts sprayed, L2 larvae; conditions: 96 h, application rate 200 ppm, 4 days after infestation, read-out: effect in at least one of the two categories (mortality or growth inhibition)
Protocol: Example B1: Diabrotica Balteata (Corn Root Worm)
Maize sprouts placed onto an agar layer in 24-well microtiter plates were treated with aqueous test solutions prepared from 10,000 ppm DMSO stock solutions by spraying. After drying, the plates were infested with L2 larvae (6 to 10 per well). The samples were assessed for mortality and growth inhibition in comparison to untreated samples 4 days after infestation.
(§1) The following compounds gave an effect of at least 80% in at least one of the two categories (mortality or growth inhibition) at an application rate of 200 ppm: […]

Euschistus heros = test: Example B2: Euschistus heros (neotropical brown stink bug), soybean leaves sprayed, N2 nymphs; conditions: 120 h, application rate 200 ppm, 5 days after infestation, read-out: effect in at least one of the two categories (mortality or growth inhibition)
Protocol: Example B2: Euschistus heros (Neotropical Brown Stink Bug)
Soybean leaves on agar in 24-well microtiter plates were sprayed with aqueous test solutions prepared from 10,000 ppm DMSO stock solutions. After drying the leaves were infested with N2 nymphs. The samples were assessed for mortality and growth inhibition in comparison to untreated samples 5 days after infestation.
as §1

Plutella xylostella = test: Example B4: Plutella xylostella (diamond back moth), artificial diet, 24-well, eggs; conditions: 192 h, application rate 200 ppm, 8 days after infestation, read-out: effect in at least one of the two categories (mortality or growth inhibition)
Protocol: Example B4: Plutella xylostella (Diamond Back Moth)
24-well microtiter plates with artificial diet were treated with aqueous test solutions prepared from 10,000 ppm DMSO stock solutions by pipetting. After drying, Plutella eggs were pipetted through a plastic stencil onto a gel blotting paper and the plate was closed with it. The samples were assessed for mortality and growth inhibition in comparison to untreated samples 8 days after infestation.
as §1

Myzus persicae [1] = test: Example B6: Myzus persicae (green peach aphid), intrinsic activity, sucrose solution, 24-well; conditions: 120 h, test rate 12 ppm, 5 days after infestation
Text: Example B6: Myzus persicae (Green Peach Aphid). Intrinsic Activity
Test compounds prepared from 10,000 ppm DMSO stock solutions were applied by pipette into 24-well microtiter plates and mixed with sucrose solution. The plates were closed with a stretched Parafilm. A plastic stencil with 24 holes was placed onto the plate and infested pea seedlings were placed directly on the Parafilm. The infested plate was closed with a gel blotting paper and another plastic stencil and then turned upside down. The samples were assessed for mortality 5 days after infestation.

Spodoptera littoralis [2] = test: Example B7: Spodoptera littoralis (Egyptian cotton leaf worm), cotton leaf discs sprayed, L1 larvae; conditions: foliar, 72 h, application rate 200 ppm, 3 days after infestation, read-out: control in at least one of the categories (mortality, anti-feedant effect, or growth inhibition)
Protocol: Example B7: Spodoptera littoralis (Egyptian Cotton Leaf Worm)
Cotton leaf discs were placed onto agar in 24-well microtiter plates and sprayed with aqueous test solutions prepared from 10,000 ppm DMSO stock solutions. After drying the leaf discs were infested with five L1 larvae. The samples were assessed for mortality, anti-feeding effect, and growth inhibition in comparison to untreated samples 3 days after infestation. Control of Spodoptera littoralis by a test sample is given when at least one of the categories mortality, anti-feedant effect, and growth inhibition is higher than the untreated sample.

Thrips tabaci = test: Example B9: Thrips tabaci (onion thrips), feeding/contact activity, sunflower leaf discs; conditions: foliar, 144 h; application rate 200 ppm; 6 days after infestation; Thrips tabaci mixed ages
Protocol: Example B9: Thrips tabaci (Onion Thrips) Feeding/Contact Activity
Sunflower leaf discs were placed on agar in 24-well microtiter plates and sprayed with aqueous test solutions prepared from 10,000 ppm DMSO stock solutions. After drying the leaf discs were infested with a thrips population of mixed ages. The samples were assessed for mortality 6 days after infestation.

Spodoptera littoralis [3] = test: Example B8: Spodoptera littoralis (Egyptian cotton leaf worm), uptake by lettuce roots from agar, eggs; conditions: 144 h, test rate 12.5 ppm, 6 days after infestation, lettuce root uptake, read-out: effect in at least one of the three categories (mortality, anti-feeding, or growth inhibition)
Text: Example B8: Spodoptera littoralis (Egyptian Cotton Leaf Worm)
Test compounds were applied by pipette from 10,000 ppm DMSO stock solutions into 24-well plates and mixed with agar. Lettuce seeds were placed onto the agar and the multi well plate was closed by another plate which contained also agar. After 7 days the compound was absorbed by the roots and the lettuce grew into the lid plate. The lettuce leaves were then cut off into the lid plate. Spodoptera eggs were pipetted through a plastic stencil onto a humid gel blotting paper and the lid plate was closed with it. The samples were assessed for mortality, anti-feedant effect and growth inhibition in comparison to untreated samples 6 days after infestation.
The following compounds gave an effect of at least 80% in at least one of the three categories (mortality, anti-feeding, or growth inhibition) at a test rate of 12.5 ppm: […]

Myzus persicae [4] = test: Example B5: Myzus persicae (green peach aphid), feeding/contact activity, sunflower leaf discs; conditions: foliar, 144 h, application rate 200 ppm, 6 days after infestation, Myzus persicae mixed ages
Protocol: Example B5: Myzus persicae (Green Peach Aphid):Feeding/Contact Activity
Sunflower leaf discs were placed onto agar in a 24-well microtiter plate and sprayed with aqueous test solutions prepared from 10,000 ppm DMSO stock solutions. After drying, the leaf discs were infested with an aphid population of mixed ages. The samples were assessed for mortality 6 days after infestation.

CC(c1ncnn1-c1ncccn1)N(CC1CC1)C(=O)c1cc(C(F)F)cc(C(F)(F)F)c1 (stereo not drawn) [P1, N-(cyclopropylmethyl)-3-(difluoromethyl)-N-[1-(2-pyrimidin-2-yl-1,2,4-triazol-3-yl)ethyl]-5-(trifluoromethyl) benzamide]
≥ 80%: percent effect (mortality or growth inhibition) at 200 ppm (Diabrotica balteata) | percent effect (mortality or growth inhibition) at 200 ppm (Euschistus heros) | percent effect (mortality or growth inhibition) at 200 ppm (Plutella xylostella) | mortality at 12 ppm (Myzus persicae [1]) | percent control (mortality, anti-feedant effect or growth inhibition) at 200 ppm (Spodoptera littoralis [2]) | mortality at 200 ppm (Thrips tabaci)

CC(c1ncnn1-c1ncccn1)N(CC1CC1)C(=O)c1cc(OC(F)(F)C(F)F)cc(C(F)(F)F)c1 (stereo not drawn) [P3, N-(cyclopropylmethyl)-N-[1-(2-pyrimidin-2-yl-1,2,4-triazol-3-yl)ethyl]-3-(1,1,2,2-tetrafluoroethoxy)-5-(trifluoromethyl)benzamide]
≥ 80%: percent effect (mortality or growth inhibition) at 200 ppm (Diabrotica balteata) | percent effect (mortality or growth inhibition) at 200 ppm (Euschistus heros) | percent effect (mortality or growth inhibition) at 200 ppm (Plutella xylostella) | mortality at 12 ppm (Myzus persicae [1]) | percent control (mortality, anti-feedant effect or growth inhibition) at 200 ppm (Spodoptera littoralis [2]) | percent effect (mortality, anti-feeding or growth inhibition) at 12.5 ppm (Spodoptera littoralis [3]) | mortality at 200 ppm (Thrips tabaci)

CC(NC(=O)c1cc(SCC(F)(F)F)cc(C(F)(F)F)c1)c1ncnn1-c1ncccn1 (stereo not drawn) [P6, N-[1-(2-pyrimidin-2-yl-1,2,4-triazol-3-yl)ethyl]-3-(2,2,2-trifluoroethylsulfanyl)-5-(trifluoromethyl) benzamide]
≥ 80%: percent effect (mortality or growth inhibition) at 200 ppm (Diabrotica balteata) | percent effect (mortality or growth inhibition) at 200 ppm (Plutella xylostella) | percent control (mortality, anti-feedant effect or growth inhibition) at 200 ppm (Spodoptera littoralis [2])

CC(NC(=O)c1cc(OCC(F)(F)F)cc(C(F)(F)F)c1)c1ncnn1-c1ncccn1 (stereo not drawn) [P7, N-[1-(2-pyrimidin-2-yl-1,2,4-triazol-3-yl)ethyl]-3-(2,2,2-trifluoroethoxy)-5-(trifluoromethyl) benzamide]
≥ 80%: percent effect (mortality or growth inhibition) at 200 ppm (Diabrotica balteata) | percent effect (mortality or growth inhibition) at 200 ppm (Euschistus heros) | percent effect (mortality or growth inhibition) at 200 ppm (Plutella xylostella) | mortality at 200 ppm (Myzus persicae [4]) | mortality at 12 ppm (Myzus persicae [1]) | percent control (mortality, anti-feedant effect or growth inhibition) at 200 ppm (Spodoptera littoralis [2])

CC(NC(=O)c1cc(SCC(F)(F)F)cc(C(F)(F)F)c1)c1ncnn1-c1ccccn1 (stereo not drawn) [P9, N-[1-[2-(2-pyridyl)-1,2,4-triazol-3-yl]ethyl]-3-(2,2,2-trifluoroethylsulfanyl)-5-(trifluoromethyl) benzamide]
≥ 80%: percent effect (mortality or growth inhibition) at 200 ppm (Diabrotica balteata) | percent effect (mortality or growth inhibition) at 200 ppm (Plutella xylostella)

CC(NC(=O)c1cc(OCC(F)(F)F)cc(C(F)(F)F)c1)c1ncnn1-c1ccccn1 (stereo not drawn) [P10, N-[1-[2-(2-pyridyl)-1,2,4-triazol-3-yl]ethyl]-3-(2,2,2-trifluoroethoxy)-5-(trifluoromethyl) benzamide]
≥ 80%: percent effect (mortality or growth inhibition) at 200 ppm (Diabrotica balteata) | percent effect (mortality or growth inhibition) at 200 ppm (Euschistus heros) | percent effect (mortality or growth inhibition) at 200 ppm (Plutella xylostella) | percent control (mortality, anti-feedant effect or growth inhibition) at 200 ppm (Spodoptera littoralis [2])

CC(NC(=O)c1cc(OC(F)F)cc(C(F)(F)F)c1)c1ncnn1-c1ccccn1 (stereo not drawn) [P11, 3-(difluoromethoxy)-N-[1-[2-(2-pyridyl)-1,2,4-triazol-3-yl]ethyl]-5-(trifluoromethyl) benzamide]
≥ 80%: percent effect (mortality or growth inhibition) at 200 ppm (Diabrotica balteata) | percent effect (mortality or growth inhibition) at 200 ppm (Plutella xylostella) | percent control (mortality, anti-feedant effect or growth inhibition) at 200 ppm (Spodoptera littoralis [2]) | percent effect (mortality, anti-feeding or growth inhibition) at 12.5 ppm (Spodoptera littoralis [3])

CC(NC(=O)c1cc(OC(F)F)cc(C(F)(F)F)c1)c1ncnn1-c1ncccc1F (stereo not drawn) [P12, 3-(difluoromethoxy)-N-[1-[2-(3-fluoro-2-pyridyl)-1,2,4-triazol-3-yl]ethyl]-5-(trifluoromethyl) benzamide]
≥ 80%: percent effect (mortality or growth inhibition) at 200 ppm (Diabrotica balteata) | percent effect (mortality or growth inhibition) at 200 ppm (Euschistus heros) | percent effect (mortality or growth inhibition) at 200 ppm (Plutella xylostella) | percent control (mortality, anti-feedant effect or growth inhibition) at 200 ppm (Spodoptera littoralis [2])

CC(NC(=O)c1cc(SCC(F)(F)F)cc(C(F)(F)F)c1)c1ncnn1-c1ncccc1F (stereo not drawn) [P13, N-[1-[2-(3-fluoro-2-pyridyl)-1,2,4-triazol-3-yl]ethyl]-3-(2,2,2-trifluoroethylsulfanyl)-5-(trifluoromethyl) benzamide]
≥ 80%: percent effect (mortality or growth inhibition) at 200 ppm (Diabrotica balteata)

CC(NC(=O)c1cc(OC(F)F)cc(C(F)(F)F)c1)c1ncnn1-c1ccc(F)cn1 (stereo not drawn) [P15, 3-(difluoromethoxy)-N-[1-[2-(5-fluoro-2-pyridyl)-1,2,4-triazol-3-yl]ethyl]-5-(trifluoromethyl) benzamide]
≥ 80%: percent effect (mortality or growth inhibition) at 200 ppm (Diabrotica balteata) | percent effect (mortality or growth inhibition) at 200 ppm (Euschistus heros) | percent effect (mortality or growth inhibition) at 200 ppm (Plutella xylostella) | mortality at 12 ppm (Myzus persicae [1]) | percent control (mortality, anti-feedant effect or growth inhibition) at 200 ppm (Spodoptera littoralis [2]) | percent effect (mortality, anti-feeding or growth inhibition) at 12.5 ppm (Spodoptera littoralis [3])

CC(NC(=O)c1cc(SCC(F)(F)F)cc(C(F)(F)F)c1)c1ncnn1-c1ccc(F)cn1 (stereo not drawn) [P16, N-[1-[2-(5-fluoro-2-pyridyl)-1,2,4-triazol-3-yl]ethyl]-3-(2,2,2-trifluoroethylsulfanyl)-(trifluoromethyl) benzamide]
≥ 80%: percent effect (mortality or growth inhibition) at 200 ppm (Diabrotica balteata) | percent effect (mortality or growth inhibition) at 200 ppm (Plutella xylostella) | percent control (mortality, anti-feedant effect or growth inhibition) at 200 ppm (Spodoptera littoralis [2])

CC(NC(=O)c1cc(OCC(F)(F)F)cc(C(F)(F)F)c1)c1ncnn1-c1ccc(F)cn1 (stereo not drawn) [P17, N-[1-[2-(5-fluoro-2-pyridyl)-1,2,4-triazol-3-yl]ethyl]-3-(2,2,2-trifluoroethoxy)-5-(trifluoromethyl) benzamide]
≥ 80%: percent effect (mortality or growth inhibition) at 200 ppm (Diabrotica balteata) | percent effect (mortality or growth inhibition) at 200 ppm (Euschistus heros) | percent effect (mortality or growth inhibition) at 200 ppm (Plutella xylostella) | percent control (mortality, anti-feedant effect or growth inhibition) at 200 ppm (Spodoptera littoralis [2])

CC(NC(=O)c1cncc(OC(F)F)c1)c1ncnn1-c1ncccc1F (stereo not drawn) [P22, 5-(difluoromethoxy)-N-[1-[2-(3-fluoro-2-pyridyl)-1,2,4-triazol-3-yl]ethyl]pyridine-3-carboxamide]
≥ 80%: percent effect (mortality or growth inhibition) at 200 ppm (Plutella xylostella)

CC(NC(=O)c1cncc(OC(F)F)c1)c1ncnn1-c1ncccn1 (stereo not drawn) [P24, 5-(difluoromethoxy)-N-[1-(2-pyrimidin-2-yl-1,2,4-triazol-3-yl)ethyl]pyridine-3-carboxamide]
≥ 80%: percent effect (mortality or growth inhibition) at 200 ppm (Diabrotica balteata) | percent effect (mortality or growth inhibition) at 200 ppm (Euschistus heros) | mortality at 200 ppm (Myzus persicae [4])
